In ChEMBL document CHEMBL5154652, “Design, synthesis and anti-hepatocellular carcinoma activity of 3-arylisoquinoline alkaloids” (Eur J Med Chem, 2022):
Active and inactive are the calls of the source. The rule behind the calls is not given here.

Key:
[1] = test system: HCCLM9; assay: Induction of apoptosis in human HCCLM9 cells assessed as increase in cytochrome C expression at 3.75 to 15 uM; assay type: functional, cell-based; conditions: dose 3.75-15 µM
[2] = test system: U-251; assay: Antiproliferative activity against human U-251 cells after 72 hrs by MTT assay; assay type: functional, cell-based; conditions: U-251, 72 h
[3] = test system: Huh-7; assay: Inhibition of cell migration in human Huh-7 cells at 2 to 8 uM after 24 hrs by transwell assay; assay type: functional, cell-based; conditions: dose 2-8 µM
[4] = test system: Huh-7; assay: Induction of apoptosis in human Huh-7 cells assessed as increase in cleaved caspase-9 expression at 5 to 20 uM; assay type: functional, cell-based; conditions: dose 5-20 µM
[5] = test system: Huh-7; assay: Inhibition of cell invasion in human Huh-7 cells at 2 to 8 uM after 24 hrs; assay type: functional, cell-based; conditions: dose 2-8 µM
[6] = test system: HCCLM9; assay: Induction of apoptosis in human HCCLM9 cells at 3.5 to 14 uM measured by Hoechst staining method; assay type: functional, cell-based; conditions: dose 3.5-14 µM
[7] = MRT (0 to t)in male Sprague-Dawley rat at 100 mg/kg, ip; assay type: ADME, organism-based; conditions: in vivo
[8] = test system: Huh-7; assay: Induction of apoptosis in human Huh-7 cells at 5 to 20 uM measured by Annexin V /propidium iodide staining method; assay type: functional, cell-based; conditions: dose 5-20 µM
[9] = test system: L02; assay: Antiproliferative activity against human L02 cells after 72 hrs by MTT assay; assay type: functional, cell-based; conditions: L02, 72 h
[10] = test system: HCCLM9; assay: Inhibition of MMP-9 expression in human HCCLM9 cells at 3.75 to 15 uM measured by western blot analysis; assay type: functional, cell-based; conditions: dose 3.75-15 µM
[11] = target: DNA topoisomerase 2-alpha (Homo sapiens) (UniProt P11388); assay: Inhibition of DNA topoisomerase 2 (unknown origin) at 25 uM measured by agar gel electrophoresis relative to control
Sequence of DNA topoisomerase 2-alpha (Homo sapiens) (P11388 whole entry): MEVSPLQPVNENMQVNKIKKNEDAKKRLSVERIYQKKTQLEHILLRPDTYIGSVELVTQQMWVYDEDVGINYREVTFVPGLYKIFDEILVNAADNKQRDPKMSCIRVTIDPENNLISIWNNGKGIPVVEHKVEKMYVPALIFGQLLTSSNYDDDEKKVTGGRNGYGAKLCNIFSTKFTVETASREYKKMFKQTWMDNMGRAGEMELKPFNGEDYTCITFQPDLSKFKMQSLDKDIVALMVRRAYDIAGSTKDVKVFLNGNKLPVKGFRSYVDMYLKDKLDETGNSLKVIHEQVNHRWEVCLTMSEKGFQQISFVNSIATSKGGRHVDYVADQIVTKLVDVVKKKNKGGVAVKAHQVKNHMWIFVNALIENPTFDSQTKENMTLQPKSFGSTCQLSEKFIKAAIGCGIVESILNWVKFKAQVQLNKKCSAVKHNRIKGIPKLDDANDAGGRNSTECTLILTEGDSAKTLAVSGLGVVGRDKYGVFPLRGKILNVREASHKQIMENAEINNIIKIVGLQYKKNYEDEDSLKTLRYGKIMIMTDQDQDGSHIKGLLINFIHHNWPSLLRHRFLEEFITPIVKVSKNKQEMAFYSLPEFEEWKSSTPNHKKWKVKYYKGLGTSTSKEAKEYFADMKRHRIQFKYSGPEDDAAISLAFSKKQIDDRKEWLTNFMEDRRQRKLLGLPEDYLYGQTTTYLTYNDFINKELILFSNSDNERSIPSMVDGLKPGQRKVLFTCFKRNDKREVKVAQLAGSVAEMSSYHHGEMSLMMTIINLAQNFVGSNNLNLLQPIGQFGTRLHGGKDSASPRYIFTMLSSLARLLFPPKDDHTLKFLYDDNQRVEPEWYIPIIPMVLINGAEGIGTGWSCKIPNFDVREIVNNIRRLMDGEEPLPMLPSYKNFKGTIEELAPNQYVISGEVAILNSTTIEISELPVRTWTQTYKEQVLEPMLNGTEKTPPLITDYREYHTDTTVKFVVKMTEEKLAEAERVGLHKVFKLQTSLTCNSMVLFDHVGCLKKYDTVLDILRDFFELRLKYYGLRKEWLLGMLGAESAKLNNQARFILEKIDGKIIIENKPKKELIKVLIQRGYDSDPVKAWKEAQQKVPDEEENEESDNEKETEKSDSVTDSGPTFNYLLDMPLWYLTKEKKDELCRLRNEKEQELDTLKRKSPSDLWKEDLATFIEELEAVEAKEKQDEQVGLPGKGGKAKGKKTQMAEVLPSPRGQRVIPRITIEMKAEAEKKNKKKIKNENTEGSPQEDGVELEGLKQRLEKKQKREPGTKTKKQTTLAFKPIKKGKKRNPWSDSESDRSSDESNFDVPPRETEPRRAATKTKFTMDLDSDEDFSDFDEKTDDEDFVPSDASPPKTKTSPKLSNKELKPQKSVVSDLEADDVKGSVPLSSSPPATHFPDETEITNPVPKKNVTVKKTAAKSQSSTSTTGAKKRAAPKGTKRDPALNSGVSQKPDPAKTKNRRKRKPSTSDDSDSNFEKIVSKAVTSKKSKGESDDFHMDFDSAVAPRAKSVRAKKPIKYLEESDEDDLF

[12] = Tmax in male Sprague-Dawley rat at 100 mg/kg, ip; assay type: ADME, organism-based; conditions: in vivo
[13] = test system: Huh-7; assay: Induction of cell cycle arrest in human Huh-7 cells assessed as decrease in cell accumulation at S phase at 5 to 20 uM measured after 48 hrs by flow cytometry analysis; assay type: functional, cell-based; conditions: dose 5-20 µM
[14] = test system: HCCLM9; assay: Inhibition of cell invasion in human HCCLM9 cells at 1.25 to 5 uM after 24 hrs; assay type: functional, cell-based; conditions: dose 1.25-5 µM
[15] = Toxicity in male BALB/c nude mouse xenografted with human HCCLM9 cells assessed as effect on body weight at 15 mg/kg, iv administered once a day for 21 days; assay type: organism-based; conditions: in vivo, 504 h, time 21 day
[16] = test system: Huh-7; assay: Antiproliferative activity against human Huh-7 cells at 2 to 8 uM after 24 hrs by EdU incorporation assay; assay type: functional, cell-based; conditions: dose 2-8 µM
[17] = test system: Huh-7; assay: Induction of mitochondrial dysfunction in human Huh-7 cells assessed as decrease in MMP levels at 5 to 20 uM; assay type: functional, cell-based; conditions: dose 5-20 µM
[18] = test system: Huh-7; assay: Induction of mitochondrial apoptosis in human Huh-7 cells assessed as inhibition of p-mTOR levels at 5 to 20 uM measured after 48 hrs by Western blot analysis; assay type: functional, cell-based; conditions: dose 5-20 µM
[19] = test system: Huh-7; assay: Antiproliferative activity against human Huh-7 cells after 72 hrs by MTT assay; assay type: functional, cell-based; conditions: Huh-7, 72 h
[20] = test system: HGC-27; assay: Antiproliferative activity against human HGC-27 cells after 72 hrs by MTT assay; assay type: functional, cell-based; conditions: HGC-27, 72 h
[21] = test system: HCCLM9; assay: Antiproliferative activity against human HCCLM9 cells at 1.25 to 5 uM after 24 hrs by EdU incorporation assay; assay type: functional, cell-based; conditions: dose 1.25-5 µM
[22] = test system: RKO; assay: Antiproliferative activity against human RKO cells after 72 hrs by MTT assay; assay type: functional, cell-based
[23] = test system: HT-29; assay: Antiproliferative activity against human HT-29 cells after 72 hrs by MTT assay; assay type: functional, cell-based; conditions: HT-29, 72 h
[24] = test system: BGC-823; assay: Antiproliferative activity against human BGC-823 cells after 72 hrs by MTT assay; assay type: functional, cell-based; conditions: BGC-823, 72 h
[25] = test system: HCCLM9; assay: Induction of mitochondrial apoptosis in human HCCLM9 cells assessed as inhibition of p-Akt levels at 3.75 to 15 uM measured after 48 hrs by Western blot analysis; assay type: functional, cell-based; conditions: dose 3.75-15 µM
[26] = AUC (0 to t) in male Sprague-Dawley rat at 100 mg/kg, ip; assay type: ADME, organism-based; parameters: dose 100 mg/kg, route ip; conditions: in vivo
[27] = test system: HL-60; assay: Antiproliferative activity against human HL-60 cells after 72 hrs by MTT assay; assay type: functional, cell-based; conditions: HL-60, 72 h
[28] = Observed apparent oral clearance in male Sprague-Dawley rat at 100 mg/kg, ip; assay type: ADME, organism-based; conditions: in vivo
[29] = Genotoxicity in human Huh-7 cells assessed as induction of DNA damage at 20 uM by comet assay; assay type: toxicity, cell-based; conditions: huh-7, 20 µM
[30] = test system: Huh-7; assay: Induction of apoptosis in human Huh-7 cells assessed as increase in cytochrome C expression at 5 to 20 uM; assay type: functional, cell-based; conditions: dose 5-20 µM
[31] = test system: DNA; assay: Binding affinity to DNA (unknown origin) assessed as DNA intercalation at 100 uM measured by unwinding assay relative to control; assay type: nucleic-acid assay; conditions: Homo sapiens
[32] = test system: HepG2; assay: Antiproliferative activity against human HepG2 cells after 72 hrs by MTT assay; assay type: functional, cell-based; conditions: HepG2, 72 h
[33] = test system: HCCLM9; assay: Induction of mitochondrial apoptosis in human HCCLM9 cells assessed as inhibition of p-mTOR levels at 3.75 to 15 uM measured after 48 hrs by Western blot analysis; assay type: functional, cell-based; conditions: dose 3.75-15 µM
[34] = test system: Huh-7; assay: Induction of mitochondrial apoptosis in human Huh-7 cells assessed as inhibition of p-PI3K levels at 5 to 20 uM measured after 48 hrs by Western blot analysis; assay type: functional, cell-based; conditions: dose 5-20 µM
[35] = test system: Huh-7; assay: Induction of apoptosis in human Huh-7 cells assessed as increase in cleaved caspase-3 expression at 5 to 20 uM; assay type: functional, cell-based; conditions: dose 5-20 µM
[36] = test system: HCCLM9; assay: Induction of cell cycle arrest in human HCCLM9 cells assessed as decrease in cell accumulation at S phase at 3.75 to 15 uM measured after 48 hrs by flow cytometry analysis; assay type: functional, cell-based; conditions: dose 3.75-15 µM
[37] = test system: HCCLM9; assay: Induction of apoptosis in human HCCLM9 cells assessed as reduction in Bcl-2 expression at 3.75 to 15 uM; assay type: functional, cell-based; conditions: dose 3.75-15 µM
[38] = test system: MDA-MB-231; assay: Antiproliferative activity against human MDA-MB-231 cells after 72 hrs by MTT assay; assay type: functional, cell-based; conditions: MDA-MB-231, 72 h
[39] = test system: HCCLM9; assay: Induction of cell cycle arrest in human HCCLM9 cells assessed as increase in cell accumulation at G2/M phase at 3.75 to 15 uM measured after 48 hrs by flow cytometry analysis; assay type: functional, cell-based; conditions: dose 3.75-15 µM
[40] = test system: Huh-7; assay: Induction of cell cycle arrest in human Huh-7 cells assessed as increase in cell accumulation at G2/M phase at 5 to 20 uM measured after 48 hrs by flow cytometry analysis; assay type: functional, cell-based; conditions: dose 5-20 µM
[41] = test system: Huh-7; assay: Anticlonogenic activity in human Huh-7 cells at 2 to 8 uM measured by colony formation assay; assay type: functional, cell-based; conditions: dose 2-8 µM
[42] = test system: HCCLM9; assay: Induction of apoptosis in human HCCLM9 cells assessed as increase in cleaved caspase-9 expression at 3.75 to 15 uM; assay type: functional, cell-based; conditions: dose 3.75-15 µM
[43] = test system: HCCLM9; assay: Induction of apoptosis in human HCCLM9 cells at 3.5 to 14 uM measured by Annexin V /propidium iodide staining method; assay type: functional, cell-based; conditions: dose 3.5-14 µM
[44] = target: DNA topoisomerase 1 (Homo sapiens) (UniProt P11387); assay: Inhibition of DNA topoisomerase 1 (unknown origin) at 25 to 50 uM measured by agar gel electrophoresis relative to control; conditions: dose 25-50 µM
Sequence of DNA topoisomerase 1 (Homo sapiens) (P11387 whole entry): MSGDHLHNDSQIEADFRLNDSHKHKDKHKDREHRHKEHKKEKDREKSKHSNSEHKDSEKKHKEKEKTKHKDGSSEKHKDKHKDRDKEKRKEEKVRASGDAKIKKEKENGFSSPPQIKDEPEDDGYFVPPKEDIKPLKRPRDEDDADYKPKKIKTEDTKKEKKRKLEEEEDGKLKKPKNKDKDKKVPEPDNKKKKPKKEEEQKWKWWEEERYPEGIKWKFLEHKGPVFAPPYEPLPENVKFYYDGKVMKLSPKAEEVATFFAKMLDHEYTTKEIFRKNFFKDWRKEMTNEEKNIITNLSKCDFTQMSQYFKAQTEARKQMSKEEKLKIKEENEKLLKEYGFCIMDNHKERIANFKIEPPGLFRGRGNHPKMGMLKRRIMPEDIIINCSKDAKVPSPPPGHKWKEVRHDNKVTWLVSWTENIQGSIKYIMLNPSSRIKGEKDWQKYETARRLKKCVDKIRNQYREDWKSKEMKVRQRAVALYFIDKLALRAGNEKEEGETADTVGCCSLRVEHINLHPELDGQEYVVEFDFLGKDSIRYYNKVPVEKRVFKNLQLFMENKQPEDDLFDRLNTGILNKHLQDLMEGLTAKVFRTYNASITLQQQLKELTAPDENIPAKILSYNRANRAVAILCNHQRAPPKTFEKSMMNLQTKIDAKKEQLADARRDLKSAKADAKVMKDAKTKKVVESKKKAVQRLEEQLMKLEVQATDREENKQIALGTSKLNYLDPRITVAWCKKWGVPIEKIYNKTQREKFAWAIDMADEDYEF

[45] = test system: HCT-116; assay: Antiproliferative activity against human HCT-116 cells after 72 hrs by MTT assay; assay type: functional, cell-based; conditions: HCT-116, 72 h

## CNCc1cc2c(cc1-c1cc3ccc4c(c3cn1)OCO4)OCO2
[1]
  Activity: Active
[2]
  IC50: 13.5 µM
[3]
  inhibition: Active
[4]
  Activity: Active
[5]
  inhibition: Active
[6]
  Activity: Active
[7]
  MRT last: 1 h
[8]
  Activity: Active
[9]
  IC50: > 150 µM
[10]
  inhibition: Active
[11]
  inhibition: Active
[12]
  Tmax: 1 h
[13]
  Activity: Active
[14]
  inhibition: Active
[15]
  Activity: Non-Toxic
[16]
  Activity: Active
[17]
  Activity: Active
[18]
  Activity: Active
[19]
  IC50: 9.82 µM
[20]
  IC50: 34.2 µM
[21]
  Activity: Active
[22]
  IC50: 47.8 µM
[23]
  IC50: 31 µM
[24]
  IC50: 17.7 µM
[25]
  Activity: Active
[26]
  AUC(0-t): 31600 ng·h/mL
[27]
  IC50: 59.1 µM
[28]
  CL/F: 20.42 (mg)/(ug/ml)/hr
[29]
  Activity: Non-Toxic
[30]
  Activity: Active
[31]
  Activity: Active
[32]
  IC50: 52 µM
[33]
  Activity: Active
[34]
  Activity: Active
[35]
  Activity: Active
[36]
  Activity: Active
[37]
  Activity: Active
[38]
  IC50: 19.9 µM
[39]
  Activity: Active
[40]
  Activity: Active
[41]
  Activity: Active
[42]
  Activity: Active
[43]
  Activity: Active
[44]
  inhibition: Active
[45]
  IC50: 64 µM
